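A five-concentration, 48-hour dose response in 96-well plates underlies each endpoint, interpolated linearly between surrounding concentrations. GI50: concentration for 50% inhibition of growth. TGI: concentration producing complete growth inhibition.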
Tests used:
Test in all cases: NCI-60 cell line screen, 48 h
UO-31 renal = system: UO-31 renal
LOX IMVI melanoma = system: LOX IMVI melanoma
RPMI-8226 leukemia = system: RPMI-8226 leukemia
U251 CNS = system: U251 CNS
MALME-3M melanoma = system: MALME-3M melanoma
NCI-H226 lung = system: NCI-H226 lung
SW-620 colon = system: SW-620 colon
RXF 393 renal = system: RXF 393 renal
UACC-257 melanoma = system: UACC-257 melanoma
EKVX NSCLC = system: EKVX NSCLC
SK-MEL-28 melanoma = system: SK-MEL-28 melanoma
M14 melanoma = system: M14 melanoma
786-0 renal = system: 786-0 renal
DU-145 prostate = system: DU-145 prostate
PC-3 prostate = system: PC-3 prostate
MOLT-4 leukemia = system: MOLT-4 leukemia
HCT-15 colon = system: HCT-15 colon
SK-MEL-5 melanoma = system: SK-MEL-5 melanoma
BT-549 breast = system: BT-549 breast
TK-10 renal = system: TK-10 renal
NCI-H460 lung = system: NCI-H460 lung
SK-OV-3 ovarian = system: SK-OV-3 ovarian
CAKI-1 renal = system: CAKI-1 renal
HT29 colon = system: HT29 colon
COLO 205 colon = system: COLO 205 colon
CCRF-CEM leukemia = system: CCRF-CEM leukemia
K-562 leukemia = system: K-562 leukemia
HOP-62 NSCLC = system: HOP-62 NSCLC
MDA-MB-231 breast = system: MDA-MB-231 breast
SF-268 CNS = system: SF-268 CNS
MDA-MB-435 = system: MDA-MB-435
SN12C renal = system: SN12C renal
A549 NSCLC = system: A549 NSCLC
OVCAR-8 ovarian = system: OVCAR-8 ovarian
HCC-2998 colon = system: HCC-2998 colon
OVCAR-5 ovarian = system: OVCAR-5 ovarian
UACC-62 melanoma = system: UACC-62 melanoma
HS 578T breast = system: HS 578T breast
ACHN renal = system: ACHN renal
NCI-H522 lung = system: NCI-H522 lung
SNB-19 CNS = system: SNB-19 CNS
HCT-116 colon = system: HCT-116 colon
T-47D breast = system: T-47D breast
HL-60(TB) leukemia = system: HL-60(TB) leukemia
SR leukemia = system: SR leukemia
HOP-92 NSCLC = system: HOP-92 NSCLC
MCF7 breast = system: MCF7 breast
NCI-H23 lung = system: NCI-H23 lung
IGROV1 ovarian = system: IGROV1 ovarian
OVCAR-4 ovarian = system: OVCAR-4 ovarian
KM12 colon = system: KM12 colon
MDA-MB-468 breast = system: MDA-MB-468 breast
SNB-75 CNS = system: SNB-75 CNS
SF-295 CNS = system: SF-295 CNS
SF-539 CNS = system: SF-539 CNS
OVCAR-3 ovarian = system: OVCAR-3 ovarian
A498 renal = system: A498 renal

For CCC(C)(C)c1ccc(OCCCCN2CCN(c3ccncc3)CC2)cc1, the GI50 (UO-31 renal) was 12.2 µM, the TGI (UO-31 renal) was 24.7 µM and the GI50 (LOX IMVI melanoma) was 1.9 µM. It also gave a TGI (LOX IMVI melanoma) of 3.64 µM, a GI50 (RPMI-8226 leukemia) of 4.59 µM and a TGI (RPMI-8226 leukemia) of 24.2 µM. For the same compound, the GI50 (U251 CNS) was 5.92 µM, the TGI (U251 CNS) was 19.4 µM and the GI50 (MALME-3M melanoma) was 7.82 µM. For the same compound, the TGI (MALME-3M melanoma) was 20.5 µM, the GI50 (NCI-H226 lung) was 11.5 µM and the TGI (NCI-H226 lung) was 25.3 µM. It also gave a GI50 (SW-620 colon) of 4.82 µM, a TGI (SW-620 colon) of 18.2 µM and a GI50 (RXF 393 renal) of 2.77 µM. The TGI (RXF 393 renal) was 14.6 µM, the GI50 (UACC-257 melanoma) was 13.4 µM and the TGI (UACC-257 melanoma) was 27.5 µM. It also gave a GI50 (EKVX NSCLC) of 7.78 µM, a TGI (EKVX NSCLC) of 21.6 µM and a GI50 (SK-MEL-28 melanoma) of 7.48 µM. For the same compound, the TGI (SK-MEL-28 melanoma) was 20.3 µM, the GI50 (M14 melanoma) was 10.6 µM and the TGI (M14 melanoma) was 22.8 µM. It also gave a GI50 (786-0 renal) of 7.54 µM, a TGI (786-0 renal) of 20.1 µM and a GI50 (DU-145 prostate) of 13.4 µM. For the same compound, the TGI (DU-145 prostate) was 26.7 µM, the GI50 (PC-3 prostate) was 5.29 µM and the TGI (PC-3 prostate) was 25.4 µM. It also gave a GI50 (MOLT-4 leukemia) of 4.63 µM, a TGI (MOLT-4 leukemia) of 24.4 µM and a GI50 (HCT-15 colon) of 2.08 µM. The TGI (HCT-15 colon) was 4.82 µM, the GI50 (SK-MEL-5 melanoma) was 6.63 µM and the TGI (SK-MEL-5 melanoma) was 19.3 µM. For the same compound, the GI50 (BT-549 breast) was 5.79 µM, the TGI (BT-549 breast) was 19.2 µM and the GI50 (TK-10 renal) was 15.9 µM. For the same compound, the TGI (TK-10 renal) was 29.8 µM, the GI50 (NCI-H460 lung) was 10.1 µM and the TGI (NCI-H460 lung) was 24 µM. For the same compound, the GI50 (SK-OV-3 ovarian) was 14.7 µM, the TGI (SK-OV-3 ovarian) was 29 µM and the GI50 (CAKI-1 renal) was 13.9 µM. For the same compound, the TGI (CAKI-1 renal) was 27.5 µM, the GI50 (HT29 colon) was 3.45 µM and the TGI (HT29 colon) was 14 µM. For the same compound, the GI50 (COLO 205 colon) was 2.14 µM, the TGI (COLO 205 colon) was 4.03 µM and the GI50 (CCRF-CEM leukemia) was 6.07 µM. It also gave a TGI (CCRF-CEM leukemia) of 37.7 µM, a GI50 (K-562 leukemia) of 1.98 µM and a TGI (K-562 leukemia) of 11.2 µM. It also gave a GI50 (HOP-62 NSCLC) of 12.4 µM, a TGI (HOP-62 NSCLC) of 27 µM and a GI50 (MDA-MB-231 breast) of 11 µM. The TGI (MDA-MB-231 breast) was 23.4 µM, the GI50 (SF-268 CNS) was 15.3 µM and the TGI (SF-268 CNS) was 31 µM. It also gave a GI50 (MDA-MB-435) of 8.9 µM, a TGI (MDA-MB-435) of 21.1 µM and a GI50 (SN12C renal) of 13 µM. It also gave a TGI (SN12C renal) of 26 µM, a GI50 (A549 NSCLC) of 12.5 µM and a TGI (A549 NSCLC) of 27.3 µM. For the same compound, the GI50 (OVCAR-8 ovarian) was 14.1 µM, the TGI (OVCAR-8 ovarian) was 32 µM and the GI50 (HCC-2998 colon) was 2.29 µM. The TGI (HCC-2998 colon) was 5.48 µM, the GI50 (OVCAR-5 ovarian) was 12.7 µM and the TGI (OVCAR-5 ovarian) was 25.2 µM. The GI50 (UACC-62 melanoma) was 13.5 µM, the TGI (UACC-62 melanoma) was 26.4 µM and the GI50 (HS 578T breast) was 13.8 µM. The TGI (HS 578T breast) was 38.8 µM, the GI50 (ACHN renal) was 15 µM and the TGI (ACHN renal) was 28.3 µM. The GI50 (NCI-H522 lung) was 15.6 µM, the TGI (NCI-H522 lung) was 31 µM and the GI50 (SNB-19 CNS) was 11.3 µM. For the same compound, the TGI (SNB-19 CNS) was 23.6 µM, the GI50 (HCT-116 colon) was 4.65 µM and the TGI (HCT-116 colon) was 16.3 µM. It also gave a GI50 (T-47D breast) of 5.27 µM, a TGI (T-47D breast) of 22.8 µM and a GI50 (HL-60(TB) leukemia) of 1.93 µM. The TGI (HL-60(TB) leukemia) was 4.42 µM, the GI50 (SR leukemia) was 3.06 µM and the TGI (SR leukemia) was 10.1 µM. The GI50 (HOP-92 NSCLC) was 1.97 µM, the TGI (HOP-92 NSCLC) was 15.6 µM and the GI50 (MCF7 breast) was 3.08 µM. It also gave a TGI (MCF7 breast) of 10.7 µM, a GI50 (NCI-H23 lung) of 5.46 µM and a TGI (NCI-H23 lung) of 18.4 µM. The GI50 (IGROV1 ovarian) was 13.7 µM, the TGI (IGROV1 ovarian) was 27.3 µM and the GI50 (OVCAR-4 ovarian) was 11.6 µM. For the same compound, the TGI (OVCAR-4 ovarian) was 25 µM, the GI50 (KM12 colon) was 10.8 µM and the TGI (KM12 colon) was 24.3 µM. The GI50 (MDA-MB-468 breast) was 2.27 µM, the TGI (MDA-MB-468 breast) was 5.8 µM and the GI50 (SNB-75 CNS) was 13.4 µM. For the same compound, the TGI (SNB-75 CNS) was 26.6 µM, the GI50 (SF-295 CNS) was 4.02 µM and the TGI (SF-295 CNS) was 15.3 µM. It also gave a GI50 (SF-539 CNS) of 5.15 µM, a TGI (SF-539 CNS) of 18.2 µM and a GI50 (OVCAR-3 ovarian) of 11.2 µM. The TGI (OVCAR-3 ovarian) was 24 µM, the GI50 (A498 renal) was 17.3 µM and the TGI (A498 renal) was 31.7 µM.
